In the test the test system is Staphylococcus carnosus ATCC51365. Kind of test: Yeast screening assay: radial diffusion assay of yeast supernatants. The following applies: yeast supernatant, clearing zone in radial diffusion assay. The class given is cell-based. Also noted: key: An activity of 3 is better than Plectasin; An activity of 2 corresponds to the activity of Plectasin; 1 is worse than Plectasin. The protocol:
A range of antimicrobial polypeptides, which are variants of SEQ ID NO: 1 (Plectasin), were tested for antimicrobial activity by expressing them in S. cerevisae and screening the supernatant of the yeast transformants for antimicrobial activity against Staphylococcus carnosus ATCC51365.
Radial Diffusion Assay was carried out as described in Methods in Molecular Biology, Vol. 78, Antibacterial peptide protocol, William M. Shafer, Human Press.
200-300 yeast transformant colonies were plated on 14 cm round plates containing 25 mL SC growth medium supplemented with 1.5% galactose, 0.5% glucose and 1.5% agarose. Plates were incubated for three hours at room temperature, overlaid with 25 mL of the same growth medium and allowed to grow for three days at 30° C. Then the plates were overlaid with 25 mL of LB growth medium containing 1.5% agarose and 10^5 cells of the indicator strain Staphylococcus carnosus and incubated at 30° C. overnight to allow growth of the bacterial cells. Next day, the plates were stained with 1.5 mM MTT to facilitate visualization of the clearing zones.
Yeast colonies creating clearing zones were transferred to microtiter plates containing 200 micro-L of SC growth medium supplemented with 2% glucose and ampicillin (100 mg/L). Such plates designated “master plates” were incubated for 2 days at 30° C. with shaking at 450 rpm to allow yeast growth.
10 micro-L SC growth medium from each well of the master plates were transferred to new microtiter plates containing 200 micro-L SC growth medium with 1.5% galactose and 0.5% glucose. These plates were called daughter plates and were incubated for 3 days at 30° C. under 450 rpm shaking to allow yeast growth and peptide synthesis.
Finally a Radial Diffusion Assay (RDA) was performed following the protocol described in Methods in Molecular Biology to analyse and quantify the antimicrobial activity of the yeast supernatants against S. carnosus.
Briefly, 30 mL of minimal underlay medium containing 1% agarose and 5×10^5 cfu/mL of S. carnosus was poured in an omnitray plate (Nunc, 242811). A Nunc TSP plate (#445497) was inserted immediately on the plate to allow a 96 well pattern formation. Once the media had solidified, the TSP plate was removed and 10 micro-L of yeast supernatant samples were applied on the holes. Plates were incubated 3 hours at 37° C. and overlaid with 15 mL of LB agar growth medium. Finally, plates were incubated overnight at 37° C. and coloured with 1.5 mM MTT to visualize the clearing zones.
Inspection and measurements of the clearing zones was performed on the plates. The corresponding yeast clones resulting in clearing zones of similar or increased size than the clones encoding for wild type plectasin were picked from the master plates and transferred to agar plates containing SC growth medium with 2% glucose and ampicillin (100 mg/L). Such plates were incubated for further 2 days at 30° C. to allow yeast growth. Subsequently, colony PCR was performed followed by sequence analysis to identify amino acid changes in the plectasin sequence.
An activity of 2 corresponds to the activity of Plectasin. An activity of 3 is better than Plectasin, and 1 is worse than Plectasin.
For the sequence “GFGCNGPWDEDDMSCHNHCKSIKGYKGGYCAKGGFVCRCY [Q14S + K38R]”, the “Activity (antimicrobial activity relative to the activity of plectasin)” value amounted to 2.
The value for “GFGCNGPWDEDDMTCHNHCKSIKGYKGGYCAKGGFVCKCY [Mutation Q14T]” was 2; that for “GFGCNGPWDEDDMVCHNHCKSIKGYKGGYCAKGGFVCKCY [Mutation Q14V]” was 2; that for “GFGCNGPWDEDDMWCHNHCKSIKGYKGGYCAKGGFVCKCY [Mutation Q14W]” was 2.
Turning to “GFGCNGPWDEDDMYCHNHCKSIKGYKGGYCAKGGFVCKCY [Mutation Q14Y]”, the “Activity (antimicrobial activity relative to the activity of plectasin)” value turned out to be 3.
Consider “GFGCNGPWDEDDRQCHNHCKSIKGYKGGFCAKGGFVCKCY [M13R + Y29F]”, for which the “Activity (antimicrobial activity relative to the activity of plectasin)” value is 2.
With “GFGCNGPWDEDDVQCHNHCKSIKGYKGGYCAKGGFVCKCY [Mutation M13V]” the figure was 3; with “GFGCNGPWDEDDYQCHNHCKSIKGYKGGYCAKGGFVCKCY [Mutation M13Y]”, 2; with “GFGCNGPWDEDPMQCHNHCKSIKGYKGGYCAKGGFVCKCY [Mutation D12P]”, 2.
With “GFGCNGPWDEFDMQCHNHCKSIKGYKGGYCAKGGFVCKCY [Mutation D11F]” the figure was 3.
The value for “GFGCNGPWDEGDMQCHNHCKSIKGYKGGYCAKGGFVCKCY [Mutation D11G]” was 3; that for “GFGCNGPWDEGDMQCHSHCKSIKGYKGGYCAKGGFVCKCY [D11G + N17S]” was 3.
“GFGCNGPWDEHDMQCHNHCKSIKGYKGGYCAKGGFVCKCY [Mutation D11H]”: the “Activity (antimicrobial activity relative to the activity of plectasin)” value is 3.
With “GFGCNGPWDEIDMQCHNHCKSIKGYKGGYCAKGGFVCKCY [Mutation D11I]” the figure was 3; with “GFGCNGPWDEKDMQCHNHCKSIKGYKGGYCAKGGFVCKCY [Mutation D11K]”, 3.
The value for “GFGCNGPWDELDIQCHNHCKSIKGYKGGYCAKGGFVCKCY [D11L + M13I]” was 2.
The value for “GFGCNGPWDELDMQCHNHCKSIKGYKGGYCAKGGFVCKCY [Mutation D11L]” was 3; that for “GFGCNGPWDEMDMQCHNHCKSIKGYKGGYCAKGGFVCKCY [Mutation D11M]” was 3.
On to “GFGCNGPWDENDMQCHNHCKSIKGYKGGYCAKGGFICKCY [D11N + V36I]”, for which the “Activity (antimicrobial activity relative to the activity of plectasin)” value came to 3.
The value for “GFGCNGPWDEPDMQCHNHCKSIKGYKGGYCAKGGFVCKCY [Mutation D11P]” was 3; that for “GFGCNGPWDERDIQCHNHCKSIKGYKGGYCAKGGFVCKCY [D11R + M13I]” was 3; that for “GFGCNGPWDERDMQCHNHCKSIKGYKGGYCAKGGFVCKCY [Mutation D11R]” was 3.
The value for “GFGCNGPWDESDMQCHNHCKSIKGYKGGYCAKGGFVCKCY [Mutation D11S]” was 3; that for “GFGCNGPWDETDMQCHNHCKSIKGYKGGYCAKGGFVCKCY [Mutation D11T]” was 3; that for “GFGCNGPWDEVDMQCHNHCKSIKGYKGGYCAKGGFVCKCY [Mutation D11V]” was 3.
On to “GFGCNGPWDEWDMQCHNHCKSIKGYKGGYCAKGGFVCKCY [Mutation D11W]”, for which the “Activity (antimicrobial activity relative to the activity of plectasin)” value is 3.
With “GFGCNGPWDEYDMQCHNHCKSIKGYKGGYCAKGGFVCKCY [Mutation D11Y]” the figure was 3.
